Measurements published in patent US12404262B2 (priority 2021, dated 2025).

Conditions: 1.0% DMSO, 24-hour incubation at ambient temperature, maximum theoretical 100 μM; for pH 2 solubility: 0.1N HCl, first value of the cell; for pH 7 solubility: 1×PBS buffer (pH 7.4), second value of the cell

SMILES | pH 2 solubility | pH 7 solubility
CN(CC(C)(C)O)C(=O)N(c1nn(CC(F)(F)F)c2c(-c3ccc(C#CC(C)(C)S(C)(=O)=O)nc3[C@H](Cc3cc(F)cc(F)c3)NC(=O)Cn3nc(C(F)(F)F)c4c3C(F)(F)[C@@H]3C[C@H]43)ccc(Cl)c12)S(C)(=O)=O [Compound 47, N—((S)-1-(3-(4-chloro-3-(N-((2-hydroxy-2-methylpropyl)(methyl)carbamoyl)methylsulfonamido)-1-(2,2,2-trifluoroethyl)-1H-indazol-7-yl)-6-(3-methyl-3-(methylsulfonyl)but-1-yn-1-yl)pyridin-2-yl)-2-(3,5-difluorophenyl)ethyl)-2-((3bS,4aR)-5,5-difluoro-3-(trifluoromethyl)-3b,4,4a,5-tetrahydro-1H-cyclopropa[3,4]cyclopenta[1,2-c]pyrazol-1-yl)acetamide] | 1/1 μM | 1/1 μM
C[C@@H](C(=O)OCN(c1nn(CC(F)(F)F)c2c(-c3ccc(C#CC(C)(C)S(C)(=O)=O)nc3[C@H](Cc3cc(F)cc(F)c3)NC(=O)Cn3nc(C(F)(F)F)c4c3C(F)(F)[C@@H]3C[C@H]43)ccc(Cl)c12)S(C)(=O)=O)N(C)C [Compound 22, (N-(4-chloro-7-(2-((S)-1-(2-((3bS,4aR)-5,5-difluoro-3-(trifluoromethyl)-3b,4,4a,5-tetrahydro-1H-cyclopropa[3,4]cyclopenta[1,2-c]pyrazol-1-yl)acetamido)-2-(3,5-difluorophenyl)ethyl)-6-(3-methyl-3-(methylsulfonyl)but-1-yn-1-yl)pyridin-3-yl)-1-(2,2,2-trifluoroethyl)-1H-indazol-3-yl)methylsulfonamido)methyl dimethyl-L-alaninate] | 45 μM | 3 μM
CC(C)(C#Cc1ccc(-c2ccc(Cl)c3c(N(C(=O)NCCN4CCNCC4)S(C)(=O)=O)nn(CC(F)(F)F)c23)c([C@H](Cc2cc(F)cc(F)c2)NC(=O)Cn2nc(C(F)(F)F)c3c2C(F)(F)[C@@H]2C[C@H]32)n1)S(C)(=O)=O [Compound 73, N—((S)-1-(3-(4-chloro-3-(N-((2-(piperazin-1-yl)ethyl)carbamoyl)methylsulfonamido)-1-(2,2,2-trifluoroethyl)-1H-indazol-7-yl)-6-(3-methyl-3-(methylsulfonyl)but-1-yn-1-yl)pyridin-2-yl)-2-(3,5-difluorophenyl)ethyl)-2-((3bS,4aR)-5,5-difluoro-3-(trifluoromethyl)-3b,4,4a,5-tetrahydro-1H-cyclopropa[3,4]cyclopenta[1,2-c]pyrazol-1-yl)acetamide] | 72 μM | 16 μM
CC(C)(C)C(=O)OCN(c1nn(CC(F)(F)F)c2c(-c3ccc(C#CC(C)(C)S(C)(=O)=O)nc3[C@H](Cc3cc(F)cc(F)c3)NC(=O)Cn3nc(C(F)(F)F)c4c3C(F)(F)[C@@H]3C[C@H]43)ccc(Cl)c12)S(C)(=O)=O [Compound 30, (N-(4-chloro-7-(2-((S)-1-(2-((3bS,4aR)-5,5-difluoro-3-(trifluoromethyl)-3b,4,4a,5-tetrahydro-1H-cyclopropa[3,4]cyclopenta[1,2-c]pyrazol-1-yl)acetamido)-2-(3,5-difluorophenyl)ethyl)-6-(3-methyl-3-(methylsulfonyl)but-1-yn-1-yl)pyridin-3-yl)-1-(2,2,2-trifluoroethyl)-1H-indazol-3-yl)methylsulfonamido)methyl pivalate] | 1/1 μM | 1/1 μM

Results, then the compound that gave them:

pH 2 solubility | pH 7 solubility | SMILES
21 μM | 1 μM | CC(C)(C#Cc1ccc(-c2ccc(Cl)c3c(N(C(=O)NCCNC(=O)C(=O)O)S(C)(=O)=O)nn(CC(F)(F)F)c23)c([C@H](Cc2cc(F)cc(F)c2)NC(=O)Cn2nc(C(F)(F)F)c3c2C(F)(F)[C@@H]2C[C@H]32)n1)S(C)(=O)=O [Compound 77, 2-((2-(3-(4-chloro-7-(2-((S)-1-(2-((3bS,4aR)-5,5-difluoro-3-(trifluoromethyl)-3b,4,4a,5-tetrahydro-1H-cyclopropa[3,4]cyclopenta[1,2-c]pyrazol-1-yl)acetamido)-2-(3,5-difluorophenyl)ethyl)-6-(3-methyl-3-(methylsulfonyl)but-1-yn-1-yl)pyridin-3-yl)-1-(2,2,2-trifluoroethyl)-1H-indazol-3-yl)-3-(methylsulfonyl)ureido)ethyl)amino)-2-oxoacetic acid]
1/1 μM | 1/1 μM | CC(C)(C#Cc1ccc(-c2ccc(Cl)c3c(N(C(=O)OCCCCCO)S(C)(=O)=O)nn(CC(F)(F)F)c23)c([C@H](Cc2cc(F)cc(F)c2)NC(=O)Cn2nc(C(F)(F)F)c3c2C(F)(F)[C@@H]2C[C@H]32)n1)S(C)(=O)=O [Compound 103, 5-hydroxypentyl (4-chloro-7-(2-((S)-1-(2-((3bS,4aR)-5,5-difluoro-3-(trifluoromethyl)-3b,4,4a,5-tetrahydro-1H-cyclopropa[3,4]cyclopenta[1,2-c]pyrazol-1-yl)acetamido)-2-(3,5-difluorophenyl)ethyl)-6-(3-methyl-3-(methylsulfonyl)but-1-yn-1-yl)pyridin-3-yl)-1-(2,2,2-trifluoroethyl)-1H-indazol-3-yl)(methylsulfonyl)carbamate]
72 μM | 24 μM | CC(C)(C#Cc1ccc(-c2ccc(Cl)c3c(N(C(=O)NCCN4CCN(C(=N)N)CC4)S(C)(=O)=O)nn(CC(F)(F)F)c23)c([C@H](Cc2cc(F)cc(F)c2)NC(=O)Cn2nc(C(F)(F)F)c3c2C(F)(F)[C@@H]2C[C@H]32)n1)S(C)(=O)=O [Compound 74, N—((S)-1-(3-(3-(N-((2-(4-carbamimidoylpiperazin-1-yl)ethyl)carbamoyl)methylsulfonamido)-4-chloro-1-(2,2,2-trifluoroethyl)-1H-indazol-7-yl)-6-(3-methyl-3-(methylsulfonyl)but-1-yn-1-yl)pyridin-2-yl)-2-(3,5-difluorophenyl)ethyl)-2-((3bS,4aR)-5,5-difluoro-3-(trifluoromethyl)-3b,4,4a,5-tetrahydro-1H-cyclopropa[3,4]cyclopenta[1,2-c]pyrazol-1-yl)acetamide]
8 μM | 1 μM | CC(C)(C#Cc1ccc(-c2ccc(Cl)c3c(N(C(=O)O[C@H]4C[C@@H](NC(=N)N)C4)S(C)(=O)=O)nn(CC(F)(F)F)c23)c([C@H](Cc2cc(F)cc(F)c2)NC(=O)Cn2nc(C(F)(F)F)c3c2C(F)(F)[C@@H]2C[C@H]32)n1)S(C)(=O)=O [Compound 127, cis-3-guanidinocyclobutyl (4-chloro-7-(2-((S)-1-(2-((3bS,4aR)-5,5-difluoro-3-(trifluoromethyl)-3b,4,4a,5-tetrahydro-1H-cyclopropa[3,4]cyclopenta[1,2-c]pyrazol-1-yl)acetamido)-2-(3,5-difluorophenyl)ethyl)-6-(3-methyl-3-(methylsulfonyl)but-1-yn-1-yl)pyridin-3-yl)-1-(2,2,2-trifluoroethyl)-1H-indazol-3-yl)(methylsulfonyl)carbamate]
